The record followed here is publication PMC10056636, “3-Amino-Substituted Analogues of Fusidic Acid as Membrane-Active Antibacterial Compounds” (Membranes, 2023).

A word on the MIC: it is the lowest concentration found to suppress growth. In general, CC50 refers to the concentration giving 50% cytotoxicity. A lower CC50 goes with greater toxicity to the cells.

Series [1] is described as follows: Ion permeability and rupture of planar lipid bilayers. Particulars: for concentration up to which addition did not increase the ion permeability of the lipid bilayers: DPhPC uncharged membranes; for Cbr (threshold concentration required to rupture the bilayer): DPhPC, 0.1 M KCl, pH 7.4, 100 mV. As to the method: Synthetic 1,2-diphytanoyl-sn-glycero-3-phosphocholine (DPhPC) and 1,2-diphytanoyl-sn-glycero-3-phospho-(1′-rac-glycerol) (DPhPG) were purchased from Avanti® Polar Lipids (Avanti Polar Lipids, Inc., Alabaster, AL, USA). A KCl solution (0.1 M) was buffered with 5 mM HEPES, pH 7.4. Bilayer lipid membranes were prepared from DPhPC or DPhPG using a monolayer-opposition technique on a 50 µm-diameter aperture in a 10 µm-thick Teflon film separating the cis- and trans-compartments of the Teflon chamber. Experiments were performed in chambers containing 0.1 M KCl, 5 mM Hepes-KOH, pH 7.4.
The test compounds (4, 20, 22) were added to the cis-chamber as 10 mg/mL solutions in ethanol (to mimic the physiologically relevant conditions) up to the final concentrations and the effects of the compounds on the ion permeability of the model lipid membranes were studied. Ag/AgCl electrodes with 1.5% agarose/2 M KCl bridges were used to apply the transmembrane voltage (V) and measure the transmembrane current (I). ‘Positive voltage’ refers to the case in which the cis-side compartment is positive with respect to the trans-side. All experiments were performed at room temperature.
The current was measured using an Axopatch 200B amplifier (Molecular Devices, LLC, Orlean, CA, USA) in voltage clamp mode. Data were digitized using a Digidata 1440A and analyzed using pClamp 10.0 (Molecular Devices, LLC, Orlean, CA, USA) and Origin 8.0 (OriginLab Corporation, Northampton, MA, USA). The data were acquired at a sampling frequency of 5 kHz using low-pass filtering at 200 Hz.
The threshold concentrations (Cbr) of the derivatives required to rupture the bilayers composed of DPhPC or DPhPG at a transmembrane voltage of 100 mV were determined. Cbr-values were averaged from 3 to 4 bilayers and presented as mean ± standard error (p ≤ 0.05).

The subject of series [2] is Acinetobacter baumannii (ATCC 19606). In words: Antibacterial whole-cell growth inhibition (MIC, CO-ADD). Type of series: cell-based. To be noted: A. baumannii, two replicates per cell.
Series [3] has as its system Pseudomonas aeruginosa (ATCC 27853). The description is as above. Type of series: cell-based. To be noted: P. aeruginosa, two replicates per cell.
In series [4] the test system is Staphylococcus aureus (ATCC 43300) (MRSA). Described as above. Type of series: cell-based. Particulars: S. aureus (MRSA) ATCC 43300, inhibition ≥80%, two replicates (n = 2).
Series [5] relates to Escherichia coli (ATCC 25922). The description is as above. In kind it is cell-based. Particulars: E. coli, two replicates per cell.
Series [6] relates to Candida albicans (ATCC 90028). In words: Antifungal growth inhibition (MIC, CO-ADD). Type of series: cell-based. Particulars: C. albicans, inhibition ≥80%, two replicates per cell.
A short description of series [7]: Hemolysis assay. To be noted: human, Dmax (maximal percentage of hemolysis). In kind it is cell-based, human.
The test system of series [8] is human red blood cells. In words: Hemolysis assay. Type of series: cell-based. Particulars: human, 1 h.
Series [9] is described as follows: in vitro. In kind it is cell-based, human. Particulars: human, CC50.
Series [10] deals with human embryonic kidney cell line HEK293 (ATCC CRL-1573). In words: in vitro. Type of series: cell-based. To be noted: human, 20 h.
[11] abbreviates: Acinetobacter baumannii, ATCC19606, read-out: MIC.
Setting [12] is: Pseudomonas aeruginosa, ATCC27853, read-out: MIC.
The mark [13] stands for this setting: Escherichia coli, ATCC25922, read-out: MIC.
Setting [14] is: Candida albicans, ATCC90028, read-out: MIC.

Converted amounts (≈) assume the structure as drawn. “And” between values parts separate entries of the source, which are not always exact repeats. Equal values may be shown once. Read-outs that look alike come from different tables or passages of the source.

Regarding `COC(=O)/C(CCC=C(C)C)=C1\[C@@H](OC(C)=O)C[C@@]2(C)[C@@H]1C[C@@H](O)[C@@H]1[C@@]3(C)CC[C@H](NCCCNCCCCN)[C@@H](C)C3CC[C@@]12C` (stereo partly drawn) [Compound 20, Methyl (2Z)-2-[(3β,4α,8α,11α,14β,16β)-16-(acetyloxy)-3-({3-[(4aminobutyl)amino]propyl}amino)-11-hydroxy-4,8,10,14-tetramethylgonan-17-ylidene]-6-methylhept-5-enoate], in series [1], the “concentration up to which addition did not increase the ion permeability of the lipid bilayers” value is at most 275 µg/mL. The “Cbr (threshold concentration required to rupture the bilayer)” value in [1] was found to be 275 ± 25 µg/mL. Further, the MIC was 32 µg/mL (≈ 48.6 µM) in series [2]; 32 µg/mL (≈ 48.6 µM) in series [2] (setting [11]); >32 >32 µg/mL in [3]; above 32 µg/mL in series [3] (setting [12]); 4.0 µg/mL and 8.0 µg/mL in [4]; 32 µg/mL (≈ 48.6 µM) in [5]. Also, the minimum inhibitory concentration (MIC) in series [5] (setting [13]), in [6] and in [6] (setting [14]) was 32 µg/mL (≈ 48.6 µM) throughout. This compound showed a hemolysis at 1 h in [7] of 61.8%. Besides, the “Dmax (maximal percentage of hemolysis)” value in series [8] worked out at 60.5%. The compound further gave a 50% cytotoxic concentration (CC50) at 20 h in series [9] of 15.4 µg/mL (≈ 23.4 µM). In addition, the 50% cytotoxic concentration (CC50) in series [10] stood at 14.9 µg/mL (≈ 22.6 µM).

As to `COC(=O)/C(CCC=C(C)C)=C1\[C@@H](OC(C)=O)C[C@@]2(C)[C@@H]1C[C@@H](O)[C@@H]1[C@@]3(C)CC[C@H](NCCCNCCCCNCCCN)[C@@H](C)C3CC[C@@]12C` (stereo partly drawn) [Compound 22, Methyl (2Z)-2-[(3β,4α,8α,11α,14β,16β)-16-(acetyloxy)-3-{[3-({4-[(3-aminopropyl)amino]butyl}amino)propyl]amino}-11-hydroxy-4,8,10,14-tetramethylgonan-17-ylidene]-6-methylhept-5-enoate], the “concentration up to which addition did not increase the ion permeability of the lipid bilayers” value in series [1] is at most 250 µg/mL. In [1], the “Cbr (threshold concentration required to rupture the bilayer)” value came to 250 ± 11 µg/mL. The MIC in series [2] came out at 32 µg/mL (≈ 44.8 µM); in [2] (setting [11]), 32 µg/mL (≈ 44.8 µM); in series [3], 32 µg/mL (≈ 44.8 µM); in [3] (setting [12]) it was 32 µg/mL (≈ 44.8 µM); in [4] (Staphylococcus aureus, read-out: MIC) it was 2 µg/mL (≈ 2.8 µM); in series [5], 32 µg/mL (≈ 44.8 µM). The MIC in series [5] (setting [13]), in series [6] and in series [6] (setting [14]) was 32 µg/mL (≈ 44.8 µM) throughout. The same compound yielded a hemolysis at 1 h in series [7] of 15.1%. Also, the “Dmax (maximal percentage of hemolysis)” value in series [8] turned out to be 11.3%. For the same compound, the HC50 in [8] is listed as >32 >32 µg/mL. In addition, the cytotoxic concentration (CC50) at 20 h in series [9] is 18.8 µg/mL (≈ 26.3 µM). The compound further yielded a CC50 in series [10] of 18.1 µg/mL (≈ 25.3 µM).
